± gives the expanded uncertainty stated by the source.
Experiment: Molar enthalpy of transition or fusion
Settings: Crystal; DSC

Compound	Molar enthalpy of transition or fusion [kcal/mol]
Oc1cccc2ccccc12 [1-naphthol]	5.17 ± 0.155
Oc1ccc2ccccc2c1 [2-hydroxynaphthalene]	5.04 ± 0.151
COc1cc(C=O)ccc1O [vanillin]	5.34 ± 0.16

Reference: the NIST ThermoML archive (doi:10.1016/j.jct.2012.01.001)
